Legend:
[1] = system: non hydroxylated ceramides; assay: Non hydroxylated ceramides in keratinocytes by HPTLC; type: cell-based, human; conditions: 5 ppm
Description: The same protocol was followed as before but a larger quantity of keratinocyes was used on this occasion because of the limits of detection of the apparatus. After 7 days, the layers were rinsed, lipids extracted using solvents before being deposited on a thin-layer chromatography plate using an automated device. After migration and detection, the bands were analysed and quantified based on a range of standard lipids deposited on the same plate.
At the same time as the HPTLC cholesterol assay, an assay of hydroxylated and non-hydroxylated ceramides was carried out on the extracts.

collagen I = assay: Synthesis of collagen I on human dermal fibroblast (immunolabeling); type: cell-based; conditions: for collagen I AFU mean: 7 days
Description: Normal human fibroblasts (NHF) are cultivated in MW24 plates for 24 hours. The cells are contacted or not with the Lipo-Phosphomalate of the invention at various concentrations for 7 days. The synthesis of collagen I produced by the cells is then quantified by immunolabeling fixed on the layers using a specific antibody. Quantification by image analysis is then performed on the photos. TGF-β1 is used as positive control.
An analysis of variance was performed on the data (cases treated compared with untreated cases). In the case of identity of variances, a Student't test was then performed on the means.

G3PDH = G3PDH activity in differentiating 3T3-L1 cells; type: cell-based
Description: 3T3-L1 cells were cultivated until sub-confluence, then induced to differentiate with the appropriate mixture with or without the Lipo-Phosphomalate at different concentrations. After 3 days of incubation, the differenciation mixture is replaced by a new maintaining culture medium, in the presence or not of the Lipo-Phosphomalate. After 3 days of incubation, the cell layers are collected and the activity of G3PDH is assayed.

loricrin = assay: Production of loricrin in cultured human keratinocytes by immunolabelling; type: cell-based; conditions: for Loricrin Change (%): vs control
Description: Protocol: Human keratinocytes were cultivated up to confluence. The cells were then placed in contact/not contact with the solubilized Lipo-Phosphomalate for 21 days. At the end of this contact period, labelling common to both filaggrin and profilaggrin was carried out on cell layers using specific antibodies. Labelling intensity was analysed on photos (n=15 photos) and compared to that obtained for the negative control and for vitamin D3 at 10^−7M used as a positive differentiation control.
Loricrine is one of the key elements in the formation of the corneal envelope. It is attached to involucrin (see 1.1) by transglutaminase, which forms rigid, insoluble structures. The method described in 1.2. was used.

tyrosinase = target: T1, tyrosinase (Homo sapiens, UniProt P14679); assay: Tyrosinase activity of human melanocytes; type: cell-based; conditions: 5 days
T1 construct: endogenous in cells; host or cells: human melanocytes (homogenates)
T1 sequence (P14679 19-529): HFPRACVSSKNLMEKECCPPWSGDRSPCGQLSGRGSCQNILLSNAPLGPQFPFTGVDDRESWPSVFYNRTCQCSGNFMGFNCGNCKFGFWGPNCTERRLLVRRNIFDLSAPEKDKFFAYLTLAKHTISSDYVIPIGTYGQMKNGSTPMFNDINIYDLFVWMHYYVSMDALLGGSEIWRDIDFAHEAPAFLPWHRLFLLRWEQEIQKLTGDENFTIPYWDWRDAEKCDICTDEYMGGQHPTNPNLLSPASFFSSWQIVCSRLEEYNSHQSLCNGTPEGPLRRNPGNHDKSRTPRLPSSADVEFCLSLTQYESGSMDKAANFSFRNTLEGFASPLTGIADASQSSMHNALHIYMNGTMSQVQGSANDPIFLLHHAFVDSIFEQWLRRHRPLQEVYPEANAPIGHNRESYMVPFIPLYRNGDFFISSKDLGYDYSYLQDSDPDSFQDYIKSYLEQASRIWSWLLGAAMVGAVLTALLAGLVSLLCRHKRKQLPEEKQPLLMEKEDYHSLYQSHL
Description: Human melanocyte are sowed and contacted with the […] for 5 days. At the end of the incubation period, the residual tyrosinase activity was measured in cell homogenates.

transglutaminase-1 m-RNA = assay: Transglutaminase-1 m-RNA in keratinocytes by qRT-PCR; type: cell-based, human; conditions: 5 ppm, 14 days; for m-RNA % change: after normalisation by the housekeeping gene
From the text: ByqRT-PCR: Human keratinocytes were placed in contact/not placed in contact with solubilised for 14 days. At the end of the contact period, the cultures were stopped and m-RNA allowing production of transglutaminase-1 protein was quantified using the RT-PCR method.
After extraction and purification of the m-RNA, copies are made in DNA using a Reverse Transcriptase (RT). The number of copies of a given m-RNA (here that of TGase) is thereafter amplified using two oligonucleotides (called primers) specific to the gene of TGase and to an enzyme (PCR=polymerase chain reaction) during a series of amplification cycles, each of which doubling the number of copies present. The result of this amplication is measured by fluorescence. Ct is the number of cycles required to achieve a given fluorescence level (arbitrarily set). It is clear, that the more m-RNA of a given gene present in the starting culture there are, the fewer cycles (Ct) are needed to reach the set level of fluorescence.

3T3-L1 cells = assay: Lipid incorporation by 3T3-L1 cells (oil red, image analysis); type: cell-based
Description: 3T3-L1 cells are sowed and cultivated for 4 days (multiplication). Follow a differentiation phase (incubation with a classic differentiation mixture) and then a maturation phase (with a maturation mixture) in the presence or not of the Lipo-Phosphomalate at different concentrations. At the end of this period, cells were washed, fixed and coloured with oil red. The cell layers were photographed digitally and the red color is quantified by image analysis. The surface percentages of red oil, reported in the table below, were established compared to untreated control cells, and the test validated by comparison to pioglytazone (10 μM), positive control for stimulation of differentiation.

laminin = assay: Laminin synthesis by human keratinocytes (ELISA); type: cell-based; conditions: for laminin ng/10^e6cells: 3 days, supernatant
Description: Human keratinocytes are humains were cultivated in MW24 plates for 24 h. Cells were contacted or not with the Lipo-Phosphomalate for 3 days. Culture surpernatants were taken and an assay of the quantity of laminin was achieved. TGF-β1 was used as the positive control.

caspase-14 = assay: Production of caspase-14 in cultured human keratinocytes by immunolabelling; type: cell-based; conditions: for Caspase Change (%): vs control

CCCCCCCCCCCCCCOC(=O)CC(OP(=O)(O)O)C(=O)O (stereo not shown) [Lipo-Phosphomalate, 2-phosphate-succinic-acid-4-tetradecyle ester]
Non hydroxylated Ceramides (pg/10^6 cell.) ([1]; 7 days): 8.41 ± 1.30 pg/10^6 cell. | Non hydroxylated Ceramides % Change ([1]; vs control): +256%; p < 0.01 | collagen I AFU mean (collagen I; Eq 1%): 8.1 +/− 5.6 AFU | collagen I % Variation/control (collagen I; Eq 1%, p = 0.09): +60%; | collagen I % Variation/control (collagen I; Eq 3%): +315%; | collagen I AFU mean (collagen I; Eq 3%): 21.1 +/− 13.8 AFU | collagen I % Variation/control (collagen I; Eq 5%): +496%; | collagen I AFU mean (collagen I; Eq 5%): 30.4 +/− 14.6 AFU | G3PDH activity % Change/control (G3PDH; 10 ppm): +158%; p < 0.01 | G3PDH activity % Change/control (G3PDH; 15 ppm): +225%; p < 0.01 | Loricrin (UFA/10^6 cell.) (loricrin; 1.5 ppm): 1.69 ± 0.67 UFA/10^6 cell. | Loricrin Change (%) (loricrin; 1.5 ppm): +131%; p < 0.01 | Loricrin (UFA/10^6 cell.) (loricrin; 5 ppm): 3.84 ± 1.19 UFA/10^6 cell. | Loricrin Change (%) (loricrin; 5 ppm): +426%; p < 0.01 | tyrosinase activity Variation (%) (tyrosinase; 10 ppm): −21%; p < 0.01 | tyrosinase activity Variation (%) (tyrosinase; 12 ppm): −28%; p < 0.01 | tyrosinase activity Variation (%) (tyrosinase; 15 ppm): −31%; p < 0.01 | m-RNA % change (transglutaminase-1 m-RNA; listed as Solubilised Lipo-Phosphomalate): +101%; p < 0.01 | m-RNA % change (transglutaminase-1 m-RNA; listed as solubilised Lipo-Phosphomalate): ~+100% | m-RNA Number of cycles: Ct (transglutaminase-1 m-RNA; control 24.60 ± 0.42): 23.25 ± 0.46 | surface of red oil % Change/control (3T3-L1 cells; 10 ppm): +171%; p < 0.01 | surface of red oil % Change/control (3T3-L1 cells; 15 ppm): +294%; p < 0.01 | surface of red oil % Change/control (3T3-L1 cells; 20 ppm): +481%; p < 0.01 | laminin % Variation/control (laminin; 1.67 ppm): +64%; p < 0.01 | laminin ng/10^e6cells (laminin; 1.67 ppm): 190 +/− 11 ng/10^e6cells | laminin % Variation/control (laminin; 5 ppm): +187%; p < 0.01 | laminin ng/10^e6cells (laminin; 5 ppm): 333 +/− 10 ng/10^e6cells | laminin % Variation/control (laminin; 8.33 ppm): +196%; p < 0.01 | laminin ng/10^e6cells (laminin; 8.33 ppm): 343 +/− 10 ng/10^e6cells | Caspase (UFA/10^6 cell.) (caspase-14; 1.5 ppm): 1.13 ± 0.44 UFA/10^6 cell. | Caspase Change (%) (caspase-14; 1.5 ppm): +121%; p < 0.01 | Caspase (UFA/10^6 cell.) (caspase-14; 5 ppm): 1.68 ± 0.64 UFA/10^6 cell. | Caspase Change (%) (caspase-14; 5 ppm, listed as Solubilised Lipo-Phosphomalate): +229%; p < 0.01 | Caspase Change (%) (caspase-14; 5 ppm, listed as solubilised Lipo-Phosphomalate): +229%

— patent US8603498B2, “Lipo-phosphated or lipo-sulphated compound, compositions comprising it and topical uses thereof” (Sederma, S.A.S., priority 2010, dated 2013)
